Values of other authors in patent US20030124075A1, “Use of a composition containing at least one oxidation-sensitive hydrophilic active principle and at least one N-vinylimidazole polymer or copolymer” (L'OREAL, priority 2001, published 2003).

Experiments:
[1] = target: T1, tyrosinase (Homo sapiens, UniProt P14679); conditions: J. Soc. Cosmet. Chem., 42, 1991
T1 sequence (P14679 19-529): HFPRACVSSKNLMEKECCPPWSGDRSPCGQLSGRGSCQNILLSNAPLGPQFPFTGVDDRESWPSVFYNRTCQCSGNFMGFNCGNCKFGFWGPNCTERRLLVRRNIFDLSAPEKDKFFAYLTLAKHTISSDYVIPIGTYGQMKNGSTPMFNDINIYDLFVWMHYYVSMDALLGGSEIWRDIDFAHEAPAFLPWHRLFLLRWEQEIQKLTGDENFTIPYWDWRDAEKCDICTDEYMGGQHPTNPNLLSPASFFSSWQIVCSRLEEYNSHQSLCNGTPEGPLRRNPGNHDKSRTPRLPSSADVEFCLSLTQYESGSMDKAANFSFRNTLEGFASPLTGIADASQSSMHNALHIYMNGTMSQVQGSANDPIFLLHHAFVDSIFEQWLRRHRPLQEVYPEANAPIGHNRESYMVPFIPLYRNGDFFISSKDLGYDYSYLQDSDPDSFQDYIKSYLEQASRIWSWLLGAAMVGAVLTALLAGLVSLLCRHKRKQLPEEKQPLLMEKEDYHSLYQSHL

[2] = tested on: melanocytes; conditions: Pigment. Cell. Res., 13, 2000
[3] = J. Am. Acad. Dermatol., 1996, 34, 29-33

Structure (SMILES) | inhibiting effect on tyrosinase [1] | dendricity of melanocytes [2] | bioavailability [3]
O=C1O[C@H]([C@@H](O)CO)C(O)=C1O [ascorbic acid] | has been demonstrated | – | –
O=C1O[C@H]([C@@H](O)CO)C([O-])=C1OP(=O)([O-])[O-].O=C1O[C@H]([C@@H](O)CO)C([O-])=C1OP(=O)([O-])[O-].[Mg+2].[Mg+2].[Mg+2] [magnesium ascorbyl phosphate] | – | can reduce the dendricity of melanocytes | very low
